# Where a chain is given by its changes, count along the chain named.
# What was measured:
# [1] = target: T1, RatGluD2^5x (Rattus norvegicus, UniProt Q63226, A686S/K694R/N720P/P806D/Y613F); assay: Two-electrode voltage clamp, responses to ligands in mutant-expressing oocytes; type: cell-based; details: ligands 30 mM
# T1 construct: expressed in transfected cells; host or cells: Xenopus laevis oocytes injected with mRNA
# T1 sequence (Q63226 24-1007 Y613F/A686S/K694R/N720P/P806D): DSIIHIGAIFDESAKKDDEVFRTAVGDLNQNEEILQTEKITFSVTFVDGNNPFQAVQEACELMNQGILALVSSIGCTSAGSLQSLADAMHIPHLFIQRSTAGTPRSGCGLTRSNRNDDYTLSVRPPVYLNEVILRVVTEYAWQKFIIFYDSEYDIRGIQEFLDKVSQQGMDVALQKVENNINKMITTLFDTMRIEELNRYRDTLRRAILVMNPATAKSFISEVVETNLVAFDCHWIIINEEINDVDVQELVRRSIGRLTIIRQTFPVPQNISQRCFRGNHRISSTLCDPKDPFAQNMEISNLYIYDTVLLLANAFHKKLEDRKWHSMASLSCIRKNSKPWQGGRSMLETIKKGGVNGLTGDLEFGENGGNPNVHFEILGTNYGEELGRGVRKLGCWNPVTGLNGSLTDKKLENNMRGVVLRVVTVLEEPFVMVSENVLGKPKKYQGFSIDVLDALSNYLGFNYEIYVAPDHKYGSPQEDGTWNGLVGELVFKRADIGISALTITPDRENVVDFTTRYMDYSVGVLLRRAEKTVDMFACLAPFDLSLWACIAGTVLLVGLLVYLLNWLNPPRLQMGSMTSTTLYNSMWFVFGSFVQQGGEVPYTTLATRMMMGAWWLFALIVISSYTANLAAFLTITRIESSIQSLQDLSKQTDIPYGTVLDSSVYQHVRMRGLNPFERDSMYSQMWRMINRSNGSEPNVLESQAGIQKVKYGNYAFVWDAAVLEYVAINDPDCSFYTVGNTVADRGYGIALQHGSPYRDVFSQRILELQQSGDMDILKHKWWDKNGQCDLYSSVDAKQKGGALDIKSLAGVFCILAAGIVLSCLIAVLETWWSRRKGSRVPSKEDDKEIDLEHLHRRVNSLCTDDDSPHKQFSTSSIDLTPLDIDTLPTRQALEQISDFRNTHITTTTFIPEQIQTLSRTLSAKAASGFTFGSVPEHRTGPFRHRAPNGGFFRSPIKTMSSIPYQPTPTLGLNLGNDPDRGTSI
# Description: (§1) If the 10 mutations discussed above drove the loss of function in vertebrate delta iGluRs, one might expect that the latter could be “reawakened” via active invertebrate delta iGluR-like mutations here. We therefore engineered mutant RatGluD2 iGluRs to contain at these positions the equivalent residues from starfish delta iGluRs. These mutants were RatGluD2^5x, containing Y613F, A686S, K694R, N720P, and P806D substitutions (pink in Fig. 6A), and RatGluD2^9x, additionally containing N763K, D753Q, Q786M, and R787V (cyan in Fig. 6A).
# (§2) Fig. 6. AcaGluD-like mutations alter RatGluD2 receptor function. (A) D-serine bound RatGluD2 from X-ray structure PDB:2v3u ([13]). Selected amino acid residues are indicated, colored, shown as sticks, and labeled 5×, 9×, 10×, and/or Lc according to the multiple mutants they were incorporated into. 10× mutant included 10×, 9×, and 5× positions. 9× included 9× and 5×. 5× included only 5×. […] (B–E) Example current responses to different neurotransmitter ligands (30 mM) and to pore blocker pentamidine (Pent, 100 μM) in oocytes expressing indicated RatGluD2 mutants. The dashed line indicates zero current baseline. (F) Individual (dots) and mean (columns) responses to ligands in oocytes expressing indicated RatGluD2 mutants (n = 4 to 5).
# [2] = target: T2, RatGluD2^9x (Rattus norvegicus, UniProt Q63226, A686S/D753Q/K694R/N720P/N763K/P806D/Q786M/R787V/Y613F); assay: as above; type: cell-based; details: ligands 30 mM
# T2 construct: expressed in transfected cells; host or cells: Xenopus laevis oocytes injected with mRNA
# T2 sequence (Q63226 24-1007 Y613F/A686S/K694R/N720P/D753Q/N763K/Q786M/R787V/P806D): T1 sequence (Q63226 24-1007 Y613F/A686S/K694R/N720P/P806D) with D730Q, N740K, Q763M, R764V
# Description: as §1, §2
SMILES,current response to ligand [1],current response to ligand [2]
N[C@H](CO)C(=O)O [D-serine],no responses,no responses
"NCCCC(=O)O [GABA, γ-aminobutyric acid]",no responses,no responses
NCC(=O)O [glycine],no responses,no responses

# Source: paper PMC10861852, “Loss of activation by GABA in vertebrate delta ionotropic glutamate receptors” (Proceedings of the National Academy of Sciences of the …, 2024)
